Laboratory results: PubChem BioAssay AID248 (DTP/NCI, 2004)
Where “and” joins values, the source holds several entries; their conditions need not be identical. Equal entries are not always repeated. Inconclusive results and toxic doses are left out. No stated cut-off is given here; in the data, active means T/C of 150% or more; inactive means T/C below 125%.

System: L1210 leukemia ip in BDF1 mice, survival T/C
Experiment: NCI In Vivo Anticancer Drug Screen. Data for tumor model L1210 Leukemia (intraperitoneal) in B6D2F1 (BDF1) mice
Conditions: endpoint: mean survival time, higher = longer survival
Outline: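 Transplanted-tumor mice were given test agent; controls received vehicle only. Survival readings from the two groups were divided (treated over control).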

[1] = dose: 50.0 mg/kg/injection, schedule: Q01DX009 (ip), vehicle: saline
[2] = dose: 100.0 mg/kg/injection, schedule: Q01DX009 (ip), vehicle: saline
[3] = dose: 200.0 mg/kg/injection, schedule: Q01DX009 (ip), vehicle: saline
[4] = dose: 400.0 mg/kg/injection, schedule: Q01DX009 (ip), vehicle: saline
[5] = dose: 100.0 mg/kg/injection, schedule: Q01DX009 (ip), vehicle: saline with Tween-80
[6] = dose: 100.0 mg/kg/injection, schedule: Q04DX003 (ip), vehicle: Klucel (hydroxypropylcellulose) (HPC)
[7] = dose: 200.0 mg/kg/injection, schedule: Q01DX009 (ip), vehicle: saline with Tween-80
[8] = dose: 200.0 mg/kg/injection, schedule: Q04DX003 (ip), vehicle: Klucel (hydroxypropylcellulose) (HPC)
[9] = dose: 400.0 mg/kg/injection, schedule: Q01DX009 (ip), vehicle: saline with Tween-80
[10] = dose: 400.0 mg/kg/injection, schedule: Q04DX003 (ip), vehicle: Klucel (hydroxypropylcellulose) (HPC)
[11] = dose: 100.0 mg/kg/injection, schedule: Q04DX003 (ip), vehicle: saline with Tween-80
[12] = dose: 200.0 mg/kg/injection, schedule: Q04DX003 (ip), vehicle: saline with Tween-80
[13] = dose: 400.0 mg/kg/injection, schedule: Q04DX003 (ip), vehicle: saline with Tween-80
[14] = dose: 100.0 mg/kg/injection, schedule: Q04DX003 (ip), vehicle: saline
[15] = dose: 200.0 mg/kg/injection, schedule: Q04DX003 (ip), vehicle: saline
[16] = dose: 100.0 mg/kg/injection, schedule: Q01DX009 (ip), vehicle: Klucel (hydroxypropylcellulose) (HPC)
[17] = dose: 200.0 mg/kg/injection, schedule: Q01DX009 (ip), vehicle: Klucel (hydroxypropylcellulose) (HPC)

Measured: T/C

CCOC(=O)CNC(=O)CNC(=O)CCCCSc1ncnc2nc[nH]c12
inactive: dose: 25.0 mg/kg/injection, schedule: Q01DX009 (ip), vehicle: saline 110 % of control | [1] 98 % of control | dose: 50.0 mg/kg/injection, schedule: Q01DX009 (oral), vehicle: saline 104 % of control | [2] 103 % of control | dose: 100.0 mg/kg/injection, schedule: Q01DX009 (oral), vehicle: saline 90 % of control | [3] 101 % of control | dose: 200.0 mg/kg/injection, schedule: Q01DX009 (oral), vehicle: saline 106 % of control | [4] 100 % of control | dose: 400.0 mg/kg/injection, schedule: Q01DX009 (oral), vehicle: saline 93 % of control | dose: 800.0 mg/kg/injection, schedule: Q01DX009 (ip), vehicle: saline 115 % of control | dose: 800.0 mg/kg/injection, schedule: Q01DX009 (oral), vehicle: saline 97 % of control

O=C(O)c1cnc(Cl)nc1Nc1ccccc1I
inactive: dose: 6.25 mg/kg/injection, schedule: Q01DX009 (ip), vehicle: saline with Tween-80 93 % of control | dose: 12.5 mg/kg/injection, schedule: Q01DX001 (ip), vehicle: saline with Tween-80 90 % of control | dose: 12.5 mg/kg/injection, schedule: Q01DX009 (ip), vehicle: saline with Tween-80 88 % of control | dose: 25.0 mg/kg/injection, schedule: Q01DX001 (ip), vehicle: saline with Tween-80 90 % of control

O=[N+]([O-])c1ccc2c(c1)/C(=N/O)CCC2
inactive: [5] 110 % of control | [6] 96 % of control | [7] 92 % of control | [8] 91 % of control | [9] 90 % of control | [10] 104 % of control

COc1cc(C)c(OC)c(CCl)c1C
inactive: [11] 97 % of control | [12] 98 % of control | [13] 92 % of control

CCN(CC)CCOC(=O)C(O)(c1ccccc1)c1ccccc1
inactive: dose: 25.0 mg/kg/injection, schedule: Q04DX002 (ip), vehicle: saline 101 % of control | dose: 50.0 mg/kg/injection, schedule: Q04DX002 (ip), vehicle: saline 93 % of control | dose: 100.0 mg/kg/injection, schedule: Q04DX002 (ip), vehicle: saline 93 % of control and 115 % of control

CSCC(C)(C)NC(=O)NCCCl
inactive: dose: 100.0 mg/kg/injection, schedule: Q04DX002 (ip), vehicle: Klucel (hydroxypropylcellulose) (HPC) 89 % of control | dose: 200.0 mg/kg/injection, schedule: Q04DX002 (ip), vehicle: Klucel (hydroxypropylcellulose) (HPC) 89 % of control

C=CCN(CC=C)C(=S)[S-].C=CCN(CC=C)C(=S)[S-].[Zn]
inactive: dose: 1.25 mg/kg/injection, schedule: Q01DX009 (ip), vehicle: saline 101 % of control | dose: 2.5 mg/kg/injection, schedule: Q01DX009 (ip), vehicle: saline 93 % of control | dose: 5.0 mg/kg/injection, schedule: Q01DX009 (ip), vehicle: saline 87 % of control | dose: 5.0 mg/kg/injection, schedule: Q04DX003 (ip), vehicle: saline 90 % of control | dose: 10.0 mg/kg/injection, schedule: Q01DX001 (ip), vehicle: saline 86 % of control | dose: 10.0 mg/kg/injection, schedule: Q04DX003 (ip), vehicle: saline 92 % of control | dose: 20.0 mg/kg/injection, schedule: Q01DX001 (ip), vehicle: saline 95 % of control

N=C(N)c1cccc(NC(=O)c2cccc(C(=O)Nc3cccc(C(=N)N)c3)c2)c1
inactive: dose: 15.0 mg/kg/injection, schedule: Q01DX Z (ip), vehicle: saline 95 % of control | dose: 30.0 mg/kg/injection, schedule: Q01DX Z (ip), vehicle: saline 98 % of control | dose: 60.0 mg/kg/injection, schedule: Q01DX Z (ip), vehicle: saline 98 % of control | dose: 120.0 mg/kg/injection, schedule: Q01DX Z (ip), vehicle: saline 93 % of control | dose: 125.0 mg/kg/injection, schedule: Q01DX Z (ip), vehicle: water 96 % of control | dose: 250.0 mg/kg/injection, schedule: Q01DX Z (ip), vehicle: water 98 % of control | dose: 500.0 mg/kg/injection, schedule: Q01DX Z (ip), vehicle: water 104 % of control

O=C1C(Cl)=CC(=NBr)C=C1Cl
inactive: dose: 12.5 mg/kg/injection, schedule: Q04DX002 (ip), vehicle: Klucel (hydroxypropylcellulose) (HPC) 88 % of control | dose: 25.0 mg/kg/injection, schedule: Q04DX002 (ip), vehicle: Klucel (hydroxypropylcellulose) (HPC) 92 % of control | dose: 50.0 mg/kg/injection, schedule: Q04DX002 (ip), vehicle: Klucel (hydroxypropylcellulose) (HPC) 98 % of control

O=C(Nc1cccc2ccccc12)O/N=C/c1ccccn1
inactive: dose: 50.0 mg/kg/injection, schedule: Q01DX009 (ip), vehicle: saline with Tween-80 94 % of control | [5] 86 % of control and 87 % of control | [11] 87 % of control | [7] 94 % of control | [12] 90 % of control | [9] 107 % of control | [13] 95 % of control

CC/C=C(CC)/C(CC)=C(\Br)CC
inactive: [14] 94 % of control | [15] 92 % of control

O=C(Nc1cc(C(F)(F)F)ccc1Cl)c1ccccc1
inactive: [16] 90 % of control | [14] 117 % of control | [17] 108 % of control | [15] 101 % of control | dose: 400.0 mg/kg/injection, schedule: Q01DX009 (ip), vehicle: Klucel (hydroxypropylcellulose) (HPC) 111 % of control | dose: 400.0 mg/kg/injection, schedule: Q04DX003 (ip), vehicle: saline 103 % of control

Cc1cc([N+](=O)[O-])ccc1NC(=O)Nc1ccccc1F
inactive: [5] 102 % of control | [7] 86 % of control | [9] 96 % of control

Nc1ccc(Cc2ccc(N)c(Br)c2)cc1Br
inactive: [1] 102 % of control | dose: 100.0 mg/kg/injection, schedule: Q01DX001 (ip), vehicle: saline 93 % of control | [2] 98 % of control | dose: 200.0 mg/kg/injection, schedule: Q01DX001 (ip), vehicle: saline 98 % of control

CC(=O)Nc1ccccc1C(=O)C(N)=O
inactive: dose: 50.0 mg/kg/injection, schedule: Q01DX009 (ip), vehicle: Klucel (hydroxypropylcellulose) (HPC) 100 % of control | [16] 94 % of control | [6] 96 % of control | [17] 96 % of control | [8] 95 % of control | [10] 98 % of control

CCCCN(C(=O)O)P(=O)(OCC)OCC
inactive: [1] 101 % of control | [2] 103 % of control | [3] 109 % of control | [4] 97 % of control

COc1nc(=S)nc(OC)[nH]1
inactive: dose: 100.0 mg/kg/injection, schedule: Q01DX Z (ip), vehicle: methylcellulose (MC) 95 % of control

ClC(Cl)(Cl)C(Cl)(Cl)c1ccc(C(Cl)(Cl)C(Cl)(Cl)Cl)cc1
inactive: dose: 100.0 mg/kg/injection, schedule: Q01DX009 (ip), vehicle: saline sonified 95 % of control | [6] 89 % of control | dose: 200.0 mg/kg/injection, schedule: Q01DX009 (ip), vehicle: saline sonified 94 % of control | [8] 94 % of control | dose: 400.0 mg/kg/injection, schedule: Q01DX009 (ip), vehicle: saline sonified 94 % of control | [10] 96 % of control
